The test system of series [1] is B16–F10 murine melanoma cells. In words: MTT cell proliferation assay, B16–F10 cells. As to conditions: Mus musculus, 72 h treatment, untreated control = 100% viability, read-out: IC50, growth inhibition of B16–F10 cells. Format: cell-based. As to the method:
(§1) These studies were performed using a 3-(4,5-dimethylthiazol-2-yl)-2,5-diphenyltetrazolium bromide (MTT) assay, with increasing concentration levels of each compound (0–200 μg/mL). Cell viability was determined after treatment for 72 h, by absorption of a formazan dye.
(§2) […] ATTC HTB-38), Hep G2 human hepatocyte carcinoma cells (ECACC 85011430), nontumor human epithelial lung fibroblast cells HPF (ScienCell catalog (cat.) no. 3300), nontumor rat ileum cells IEC-18 (ECACC no. 88011801), and nontumor human embryo liver cells (ECACC 89121403) were cultured in DMEM medium supplemented with 2 mM glutamine, 10% heat-inactivated fetal bovine serum (FCS), 10.000 units/mL penicillin, and […]. These cells were incubated at 37 °C in an atmosphere of 5% CO2 and 95% humidity. The culture media were changed every 48 h, and the confluent cultures were separated with a trypsin solution (0.25% EDTA). Subconfluent monolayer cells were used in all experiments. All cell lines used were provided by the cell bank of the University of Granada (Spain).
(§3) The effect of the synthesized compounds on the viability of tumor cells was assessed using an MTT assay, based on the ability of living cells to cleave the tetrazolium ring, thus producing formazan, which absorbs at 570 nm. […] For an evaluation of the cytotoxic effects of these compounds, the cells were seeded in 96-well plates at an initial density of 5 × 10^3 B16–F10 cells, 6 × 10^3 HT29 cells, 15 × 10^3 Hep G2 cells, 8 × 10^3 HPF cells, 15 × 10^3 IEC-18 cells, and 11 × 10^3 WRL68 cells, per well. After incubation for 24 h, the cells were treated with the synthesized compounds in triplicate, at different concentrations (0–200 μg/mL), and incubated for 72 h. Thereafter, 100 μL of MTT solution (0.5 mg/mL) were added to each well. After 2 h of incubation, the cells were washed twice with phosphate buffered saline (PBS), and the formazan was resuspended in 100 μL of DMSO. Relative cell viability, with respect to untreated control cells, was measured by absorbance at 550 nm on an ELISA plate reader (Tecan Sunrise MR20-301, TECAN, Austria). […] These experiments were measured and compared to the control after 72 h of treatment.

The subject of series [2] is HT29 human colon adenocarcinoma cells. In words: MTT cell proliferation assay, HT29 cells. As to conditions: HT-29, 72 h treatment, untreated control = 100% viability, read-out: IC50, growth inhibition of HT29 cells. The format is cell-based. As to the method: as §1, §2, §3
In general terms: Formazan colour is commonly taken as a measure of viable cells.

In series [3] the test system is Hep G2 human hepatocyte carcinoma cells. In words: MTT cell proliferation assay, Hep G2 cells. The following applies: HepG2, 72 h treatment, untreated control = 100% viability, read-out: IC50, growth inhibition of Hep G2 cells. Format: cell-based. On the procedure:
as §1, §2, §3

The test system of series [4] is B16-F10, HT29, and Hep G2 cancer cell lines. In words: MTT assay, statements over the three cancer cell lines. The following applies: 72 h, read-out: IC50 (cytotoxicity), cell line not distinguished. The format is cell-based. On the procedure: These studies were performed using a 3-(4,5-dimethylthiazol-2-yl)-2,5-diphenyltetrazolium bromide (MTT) assay, with increasing concentration levels of each compound (0–200 μg/mL). Cell viability was determined after treatment for 72 h, by absorption of a formazan dye. […] In these three cancer cell lines, the concentration of the compounds that reduced the response by half (IC50) was determined (Table 1).
The effect of the synthesized compounds on the viability of tumor cells was assessed using an MTT assay, based on the ability of living cells to cleave the tetrazolium ring, thus producing formazan, which absorbs at 570 nm. The MA conjugates (1–12) were assayed against the selected cancer cell lines. For an evaluation of the cytotoxic effects of these compounds, the cells were seeded in 96-well plates at an initial density of 5 × 10^3 B16–F10 cells, 6 × 10^3 HT29 cells, 15 × 10^3 Hep G2 cells, 8 × 10^3 HPF cells, 15 × 10^3 IEC-18 cells, and 11 × 10^3 WRL68 cells, per well. After incubation for 24 h, the cells were treated with the synthesized compounds in triplicate, at different concentrations (0–200 μg/mL), and incubated for 72 h. […] Relative cell viability, with respect to untreated control cells, was measured by absorbance at 550 nm on an ELISA plate reader (Tecan Sunrise MR20-301, TECAN, Austria). […] These experiments were measured and compared to the control after 72 h of treatment.

Structures are written as SMILES.

A word on the IC50: it is the midpoint of a concentration-inhibition curve. Consider `O=C(O)c1cc2ccccc2oc1=O` [C3CA, coumarin-3-carboxylic acid, reference compound], for which the IC50 in series [1], in series [2] and in series [3] was above 10 µM each time.
A word on the melting point: it is the temperature, or range, at which the solid turns liquid. In the case of `CC1(C)CC[C@]2(C(=O)NCCCCCCNC(=O)c3cc4ccccc4oc3=O)CC[C@]3(C)C(=CC[C@@H]4[C@@]5(C)C[C@@H](O)[C@H](O)C(C)(C)[C@@H]5CC[C@]43C)[C@@H]2C1` [Compound 2, 2α,3β-Dihydroxy-N-(6′-(2″-oxo-2″H-chromene-3″-carboxamido)hexyl)olean-12-en-28-amide], the melting point lay in the range of 73 to 75 °C. The IC50 in series [1] is above 10 µM. In addition, in series [2], the IC50 is above 10 µM. Besides, the IC50 in series [3] was above 10 µM.
In turn, `CC1(C)CC[C@]2(C(=O)NCCCCCCCCCCNC(=O)c3cc4ccccc4oc3=O)CC[C@]3(C)C(=CC[C@@H]4[C@@]5(C)C[C@@H](O)[C@H](O)C(C)(C)[C@@H]5CC[C@]43C)[C@@H]2C1` [Compound 3, 2α,3β-Dihydroxy-N-(10′-(2″-oxo-2″H-chromene-3″-carboxamido)decyl)olean-12-en-28-amide] displayed a melting point of 86 to 88 °C. In series [1], the IC50 is above 10 µM. Also, the IC50 in series [2] is above 10 µM. The IC50 in series [3] was above 10 µM.
With `CC1(C)CC[C@]2(C(=O)NCCCCCCNC(=O)Cc3cc(=O)oc4cc(O)ccc34)CC[C@]3(C)C(=CC[C@@H]4[C@@]5(C)C[C@@H](O)[C@H](O)C(C)(C)[C@@H]5CC[C@]43C)[C@@H]2C1` [Compound 5, 2α,3β-Dihydroxy-N-(6′-(2″-(7‴-hydroxy-2‴-oxo-2‴H-chromen-4‴-yl)acetamido)hexyl)olean-12-en-28-amide], the melting point lay within 139 to 141 °C. Besides, in series [1], the IC50 was above 10 µM. The IC50 in series [2] was above 10 µM. The IC50 in series [3] is above 10 µM.
Regarding `CC1(C)CC[C@]2(C(=O)NCCCCCCCCCCNC(=O)Cc3cc(=O)oc4cc(O)ccc34)CC[C@]3(C)C(=CC[C@@H]4[C@@]5(C)C[C@@H](O)[C@H](O)C(C)(C)[C@@H]5CC[C@]43C)[C@@H]2C1` [Compound 6, 2α,3β-Dihydroxy-N-(10′-(2″-(7‴-hydroxy-2‴-oxo-2‴H-chromen-4‴-yl)acetamido)decyl)olean-12-en-28-amide], the melting point lay within 120 to 122 °C. Further, the IC50 in series [1] is above 10 µM. For the same compound, in series [2], the IC50 is above 10 µM. For the same compound, the IC50 in series [3] was above 10 µM.
`CC1(C)CC[C@]2(C(=O)NCCCCCCNC(=O)/C=C/c3ccc(O)cc3)CC[C@]3(C)C(=CC[C@@H]4[C@@]5(C)C[C@@H](O)[C@H](O)C(C)(C)[C@@H]5CC[C@]43C)[C@@H]2C1` [Compound 8, 2α,3β-Dihydroxy-N-(6′-((E)-3″-(4‴-hydroxyphenyl)acrylamido)hexyl)olean-12-en-28-amide] showed a melting point of 76 to 78 °C. Besides, the IC50 in series [1] was above 10 µM. In series [2], the IC50 was above 10 µM. In addition, in series [3], the IC50 is above 10 µM.
Regarding `CC1(C)CC[C@]2(C(=O)NCCCCCCCCCCNC(=O)/C=C/c3ccc(O)cc3)CC[C@]3(C)C(=CC[C@@H]4[C@@]5(C)C[C@@H](O)[C@H](O)C(C)(C)[C@@H]5CC[C@]43C)[C@@H]2C1` [Compound 9, 2α,3β-Dihydroxy-N-(10′-((E)-3″-(4‴-hydroxyphenyl)acrylamido)decyl)olean-12-en-28-amide], the melting point was 104 to 106 °C. In series [1], the IC50 is above 10 µM. Besides, the IC50 in series [2] was above 10 µM. In series [3], the IC50 was above 10 µM.
Regarding `Cc1cc(=O)oc2cc(NC(=O)[C@]34CCC(C)(C)C[C@H]3C3=CC[C@@H]5[C@@]6(C)C[C@@H](O)[C@H](O)C(C)(C)[C@@H]6CC[C@@]5(C)[C@]3(C)CC4)ccc12` [Compound 11, 2α,3β-dihydroxy-N-(4-methyl-2-oxo-2H-chromen-7-yl)-olean-12-en-28-amide], the 50% inhibitory concentration (IC50) in series [1], in series [2], in series [4] and in series [3] was above 10 µM throughout.
`Cc1cc(=O)oc2cc(NC(=O)[C@]34CCC(C)(C)C[C@H]3C3=CC[C@@H]5[C@@]6(C)C[C@@H](OC(=O)c7cc8ccccc8oc7=O)[C@H](OC(=O)c7cc8ccccc8oc7=O)C(C)(C)[C@@H]6CC[C@@]5(C)[C@]3(C)CC4)ccc12` [Compound 12, N-(4‴-Methyl-2‴-oxo-2‴H-chromen-7‴-yl)-2α,3β-bis((2′-oxo-2′H-chromene-3′-carbonyl)oxy)-olean-12-en-28-amide] showed a melting point of 206 to 208 °C. In addition, the IC50 in series [1] was above 10 µM. For the same compound, in series [2], the IC50 was above 10 µM. Besides, in series [4], the IC50 is above 10 µM. In addition, the IC50 in series [3] was above 10 µM.
Regarding `O=C(O)Cc1cc(=O)oc2cc(O)ccc12` [HCAA, 7-hydroxycoumarinyl-4-acetic acid, reference compound], the IC50 in series [1], in series [2] and in series [3] was above 10 µM throughout.
As for `CC1(C)CC[C@]2(C(=O)O)CC[C@]3(C)C(=CC[C@@H]4[C@@]5(C)C[C@@H](O)[C@H](O)C(C)(C)[C@@H]5CC[C@]43C)[C@@H]2C1` [MA (I), 2α,3β-dihydroxyolean-12-en-28-oic acid, reference compound], the IC50 in series [1], in series [2] and in series [3] was above 10 µM in each case.
Take `O=C(O)/C=C/c1ccc(O)cc1` [PCA, p-coumaric acid, reference compound]: the half-maximal inhibitory concentration (IC50) in series [1], in series [2] and in series [3] was above 10 µM throughout.

The values are drawn from paper PMC8476055, “Synthesis and Biological Activity of Triterpene–Coumarin Conjugates” (Journal of Natural Products, 2021).
